Key:
Type in all cases: biochemical
[1] = target: T1, human Matrix metalloproteinase 13 (MMP-13) (Homo sapiens, UniProt P45452); assay: MMP-13 mediated break down of aggrecan (SDS-PAGE, silver stain); conditions: 10% racemic HICA, APMA-activated MMP-13, incubation 2 d, FIG. 1 line 11
T1 construct: purchased BioTeZ, Berlin-Buch, Berlin, Germany 30100802
Description: (§1) As positive inhibitor controls Ilomastat (Ilo, CC1010, Millipore) and chlorhexidine (CHX, Corsodyl®, [2 mg/ml] (GlaxoSmithKline, Brøndby, Denmark) were used and 50 mM Tris-HCl-buffer (TNC): pH 7.5; 0.2 M NaCl; 1.0 mM CaCl2) was used as neutral assay buffer.
(§2) MMP-13 was preincubated 1 hour at 37° C. with p-aminophenylmercuric acetate (APMA, A9563, Sigma-Aldrich) to optimally activate (pro)MMP-13. As substrate, Aggrecan was added and then ADAMTS-5 or activated MMP-13 as catalytic/proteolytic enzyme and TNC, as neutral control, and 10% HICA, CHX or Ilo as protease/MMP-inhibitors let incubated together from 1 hour (h) to 2 days (d). The enzyme reactions terminated by boiling with modified Laemmli buffer. The samples were analysed by 8% SDS-PAGE and after electrophoresis the defragmentation of Aggrecan was visualised using Silver Stain Pierce®.
(§3) Sample with concentrations in lines: • 1. 0.25 μl molecular weight standards. Bio-Rad • 2. 4.2 μl Aggrecan (0.5 μg/μl) • 3. 4 μl ADAMTS-5 (0.1 μg/μl) • 4. 4.2 μl Aggrecan+4 μl ADAMTS-5+6 μl TNC-buffer. inc: 2d • 5. 4.2 μl Aggrecan+4 μl ADAMTS-5+6 μl 10% HICA. inc: 2d • 6. 4.2 μl Aggrecan+4 μl ADAMTS-5+6 μl CHX (2 mg/ml). inc: 2d • 7. 1 μl MMP-13 (0.2 μg/μl)+3 μl 2 mM APMA+6 μl TNC • 8. 4.2 μl Aggrecan+1 μl MMP-13 (0.2 μg/μl)+3 μl 2 mM APMA+6 μl TNC. inc: 1h • 9. 4.2 μl Aggrecan+1 μl MMP-13 (0.2 μg/μl)+3 μl 2 mM APMA+6 μl TNC. inc: 2d • 10. […]

[2] = target: T2, recombinant human ADAMTS-5 (Homo sapiens, UniProt Q9UNA0); assay: ADAMTS-5 mediated break down of aggrecan (SDS-PAGE, silver stain); conditions: 10% racemic HICA, pH 7.4, incubation 2 d, FIG. 1 line 5
T2 construct: purchased Chemicon International Inc. CC1034
T2 sequence (Q9UNA0 262-930): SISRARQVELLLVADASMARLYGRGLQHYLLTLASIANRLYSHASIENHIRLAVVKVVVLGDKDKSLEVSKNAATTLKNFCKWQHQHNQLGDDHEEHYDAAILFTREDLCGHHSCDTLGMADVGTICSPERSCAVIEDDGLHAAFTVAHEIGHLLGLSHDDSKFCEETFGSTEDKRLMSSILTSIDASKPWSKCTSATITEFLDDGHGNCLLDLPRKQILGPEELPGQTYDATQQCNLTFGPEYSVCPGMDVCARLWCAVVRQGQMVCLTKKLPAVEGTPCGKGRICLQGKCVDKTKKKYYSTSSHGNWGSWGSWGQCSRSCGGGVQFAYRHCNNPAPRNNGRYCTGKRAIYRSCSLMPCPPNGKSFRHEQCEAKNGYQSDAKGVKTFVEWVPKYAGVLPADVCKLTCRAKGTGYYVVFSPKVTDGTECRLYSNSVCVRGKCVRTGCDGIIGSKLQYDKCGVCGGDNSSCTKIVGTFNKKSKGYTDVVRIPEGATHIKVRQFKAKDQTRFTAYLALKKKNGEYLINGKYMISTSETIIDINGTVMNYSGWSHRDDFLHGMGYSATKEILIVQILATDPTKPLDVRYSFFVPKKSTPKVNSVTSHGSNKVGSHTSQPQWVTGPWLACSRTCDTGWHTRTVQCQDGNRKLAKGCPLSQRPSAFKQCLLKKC
Description: as §1, §2, §3

[3] = target: T3, Human recombinant pure MMP-8 (Homo sapiens, UniProt P22894); assay: MMP-8 mediated DEL-1 fragmentation (SDS-PAGE, silver stain); conditions: for inhibition of MMP-8 mediated DEL-1 fragmentation: Study A, 4 μl of 10% isomer, overnight at 37° C., FIG. 3A
T3 construct: purchased Proteaimmun 30100702
T3 sequence (P22894 101-467): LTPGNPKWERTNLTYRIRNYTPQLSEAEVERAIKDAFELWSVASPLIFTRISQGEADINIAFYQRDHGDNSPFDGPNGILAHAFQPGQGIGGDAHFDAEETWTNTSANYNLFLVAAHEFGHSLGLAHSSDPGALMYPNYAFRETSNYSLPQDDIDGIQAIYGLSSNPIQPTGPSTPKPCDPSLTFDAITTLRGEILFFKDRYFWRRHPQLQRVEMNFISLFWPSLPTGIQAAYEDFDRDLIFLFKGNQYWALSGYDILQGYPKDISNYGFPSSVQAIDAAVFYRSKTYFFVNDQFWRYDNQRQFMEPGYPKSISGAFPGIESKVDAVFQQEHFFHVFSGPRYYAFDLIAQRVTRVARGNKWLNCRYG
Description: The degradation of DEL-1 by MMP-8 was determined similarly as described (DeCarlo 1994, Sorsa, Salo et al. 1997). Human recombinant pure MMP-8 (#30100702, Proteaimmun) was preincubated 1 hour at 37° C. with p-aminophenylmercuric acetate (APMA) and different HICA isomers (D-HICA, #CAS 20312-37-2, Santa Cruz Biotechnology; L-HICA, #219827 Sigma-Aldrich). After which DEL-1 was added as a substrate. That was let incubate overnight at +37° C. Analyzed on […] SDS-PAGE with Silver Stain Pierce®. α-hydroxy-isovaleric acid (HMB). Ilomastat (Ilo). As assay buffer 50 mM Tris-HCl-buffer (TNC): pH 7.5; 0.2 M NaCl; 1.0 mM CaCl2 (Tervahartiala, Ingman et al. 1995). Fragmentation of DEL-1 induced by MMP-8 treated with 1 mM APMA was regarded as 100%. (Sorsa, Salo et al. 1997).
Study A: • 1. 1.7 μl DEL-1 (0.2 μg/μl) • 2. 1 μl MMP-8 (0.1 μg/μl)+5 μl 2 mM APMA+4 μl TNC • 3. 1.7 μl DEL-1 (0.2 μg/μl)+1 μl MMP-8 (0.1 μg/μl)+5 μl 2 mM APMA+4 μl TNC • 4.,5. 1.7 μl DEL-1 (0.2 μg/μl)+1 μl MMP-8 (0.1 μg/μl)+5 μl 2 mM APMA+10% 4 μl D-HICA • 6.,7. 1.7 μl DEL-1 (0.2 μg/μl)+1 μl MMP-8 (0.1 μg/μl)+5 μl 2 mM APMA+10% 4 μl L-HICA • 8.,9. 1.7 μl DEL-1 (0.2 μg/μl)+1 μl MMP-8 (0.1 μg/μl)+5 μl 2 mM APMA+10% 4 μl D-HMB • 10.,11. 1.7 μl DEL-1 (0.2 μg/μl)+1 μl MMP-8 (0.1 μg/μl)+5 μl 2 mM APMA+10% 4 μl L-HMB • 12.,13. 1.7 μl DEL-1 (0.2 μg/μl)+1 μl MMP-8 (0.1 μg/μl)+5 μl 2 mM APMA+4 μl Ilo
Study B: • 1. 1.7 μl DEL-1 (0.2 μg/μl) • 2. 1 μl MMP-8 (0.1 μg/μl)+5 μl 2 mM APMA+4 μl TNC • 3.,4. 1.7 μl DEL-1 (0.2 μg/μl)+1 μl MMP-8 (0.1 μg/μl)+5 μl 2 mM APMA+4 μl TNC • 6.,7. 1.7 μl DEL-1 (0.2 μg/μl)+1 μl MMP-8 (0.1 μg/μl)+7 μl 1.4 mM APMA+2 μl 10% D-HICA • 8.,9.,10. 1.7 μl DEL-1 (0.2 μg/μl)+1 μl MMP-8 (0.1 μg/μl)+5 μl 2 mM APMA+4 μl 10% D-HICA • 11.,12.,13. 1.7 μl DEL-1 (0.2 μg/μl)+1 μl MMP-8 (0.1 μg/μl)+1 μl 10 mM APMA+8 μl 10% D-HICA • 14. 1.7 μl DEL-1 (0.2 μg/μl)+1 μl MMP-8 (0.1 μg/μl)+5 μl 2 mM APMA+4 μl Ilo

| Structure (SMILES) | inhibition of break down of Aggrecan by MMP-13 [1] | inhibition of break down of Aggrecan by ADAMTS-5 [2] | inhibition of MMP-8 mediated DEL-1 fragmentation [3] | dose dependence of inhibition of MMP-8 mediated DEL-1 fragmentation ([3]; Study B, 2, 4 and 8 μl of 10% D-HICA, FIG. 3B) |
| --- | --- | --- | --- | --- |
| [H]/N=C(\N/C(=N/[H])NCCCCCCNC(=N)NC(=N)Nc1ccc(Cl)cc1)Nc1ccc(Cl)cc1 [chlorhexidine, reference compound] | prevent enzyme activity | prevent enzyme activity | – | – |
| CC(C)C[C@@H](O)C(=O)O [D-HICA] | – | – | able to prevent fragmentation of DEL-1 | inhibit MMP-8 dose-dependently |
| CC(C)C[C@H](O)C(=O)O [L-HICA] | – | – | able to prevent fragmentation of DEL-1 | – |

From patent US11793779B2, “Hica for use in prophylaxis and/or treatment of a disease or condition involving degradation of cartilage and/or disruption of cartilage homeostasis and/or integrity” (Salarusta Oy, priority 2020, dated 2023)
